Experiments:
HMECs = assay: Cell death IC50 by PI staining/FACS; assay type: cell-based; details: Human mammary epithelial cells/EBV(−), 0.1–15 µM, 6 h (suspension) or 12 h (adherent cells), mean ± SEM, read-out: Peptide IC50 (µM), cell death, HMECs
Method: (§1) Measurement of apoptosis and cell death. Apoptosis was evaluated by TUNEL assay using the In Situ Cell Death Detection Kit™ (Roche). Cells were fixed in 4% paraformaldehyde and labeled with TUNEL reagents. Stained cells were photographed by a fluorescence microscope (11). For cell death analysis, the propidium iodide (PI) staining was performed by addition of 6.25 µg/ml of PI to the cells, and cell death was immediately evaluated by FACS analysis (3).

Healthy MNCs = assay: Cell death IC50 by PI staining/FACS; assay type: cell-based; details: Healthy human mononuclear cells/EBV(−), 0.1–15 µM, 6 h (suspension) or 12 h (adherent cells), mean ± SEM, read-out: Peptide IC50 (µM), cell death, Healthy MNCs
Method: as §1

SW620 = assay: Cell death IC50 by PI staining/FACS; assay type: cell-based; details: Human colorectal adenocarcinoma/EBV(−), 0.1–15 µM, 6 h (suspension) or 12 h (adherent cells), mean ± SEM, read-out: Peptide IC50 (µM), cell death, SW620
Method: as §1

THP1 = assay: Cell death IC50 by PI staining/FACS; assay type: cell-based; details: Human monocytic leukemia/EBV(−), 0.1–15 µM, 6 h (suspension) or 12 h (adherent cells), mean ± SEM, read-out: Peptide IC50 (µM), cell death, THP1
Method: as §1

SNK6 cells [1] = assay: Peptide delivery efficiency, 125I-labeled uptake assay; assay type: in vitro ADME, human; details: 125I label on tyrosine, 0.5 µM peptide, 6-h incubation, media and cells counted by liquid scintillation counter, mean, n = 4 (Fig S1)
Text: We investigated the potential role of HKDC1-based peptides in ENKTL cells that were isolated from the MNCs of ENKTL patients or SNK6 cell line. Three different kinds of HKDC1-based targeting peptides, including the last 15 aa at either the N-terminal (HKN15) or C-terminal (HKC15), or the last eight aa at the C-terminal (HKC8) were selected; four different kinds of cell-penetrating sequences were employed to deliver the HKDC1-based peptides, including Antp (a 16 penetrating residue long sequence from the Drosophila antennapedia-homeodomain), penetration-accelerating segment, TAT (HIV-1 TAT sequence), and Tf (the Tf receptor (TfR) internalization sequence) sequences. All of the aa with the D-configuration (marked as D) were synthesized as retro-inverso peptides. […] We then evaluated the toxic effect of two peptides (including Tf-D-HKC15 and Tf-D-HKC8) on different kinds of primary and cancer cell lines (see details in Table 2). […] We also evaluated the peptide delivery efficiency using ^125I-labeled uptake assay for both Tf-D-HKC8 and Tf-D-HKC15 peptides. […]
Figure S1. […] 0.5µM each of peptide was incubated with SNK6 cells for 6 hours, then both culture media and SNK6 cells were harvested for radioactivity assay using Liquid Scintillation Counter. n=4. *, P<0.05, vs Intracellular group. Results were expressed as mean ± SEM.

SNK6 cells [2] = assay: 8-OHdG formation (DNA damage ELISA); assay type: cell-based, human; details: 0.5 µM peptide, 6 h, vs CTL, n = 5 (Fig. 3c)
Method: Measurement of DNA breaks. 8-OHdG formation was measured using an OxiSelect™ Oxidative DNA Damage ELISA Kit (Cat No. STA320, from Cell Biolabs Inc.) per manufacturers’ instructions. The formation of γH2AX was measured from nuclear extracts by western blotting using H2AX as the input control (8).

SNK6 cells [3] = assay: Apoptosis rate by TUNEL assay; assay type: cell-based, human; details: 0.5 µM peptide, 6 h, compared with CTL group, n = 5 (Fig. 4h)
Method: as §1

SNK6 cells [4] = assay: Cell proliferation by thymidine incorporation; assay type: cell-based, human; details: 0.5 µM peptide, 6 h, vs CTL, n = 5 (Fig. 5a)
Method: DNA synthesis by [^3H]-thymidine incorporation. Cell proliferation was evaluated as the rate of DNA synthesis by [^3H]-methylthymidine incorporation (17). […] At the end of the treatment, cells were incubated with serum-free media containing ^3H-methylthymidine (0.5 µCi/well) for 2 hours and then washed twice with PBS. Cellular DNA was precipitated using 10% trichloroacetic acid and solubilized with 0.4M NaOH (0.5 ml/well). Incorporation of ^3H-methylthymidine into the DNA was measured in a scintillation counter and was determined as counts per minute (CPM) (8).

EBV Zta = assay: Protein level in xenograft tumor tissue (western blot); assay type: in vivo; details: SNK6 xenograft, Balb/c athymic nude mice; intratumoral 50 µM peptide, 20 µl per tumor, every 2 days from day ~18; tissue day 50; western blot vs CTL; n = 5
Text: (§2) Biomedical analysis of tumor tissues.

EBV EA-D = assay: as above; assay type: in vivo, mouse; details: SNK6 xenograft, nude mice; intratumoral 50 µM peptide every 2 days from day ~18; tissue day 50; western blot vs CTL; n = 5
Text: as §2

P-gp = assay: as above; assay type: in vivo, mouse; details: SNK6 xenograft, nude mice; intratumoral 50 µM peptide every 2 days from day ~18; tissue day 50; western blot vs CTL; n = 5
Text: as §2

Zta = details: SNK6 xenograft, nude mice; intratumoral 50 µM peptide every 2 days from day ~18; tissue day 50; IHC vs CTL; n = 3
Method: To measure malignant SNK6 xenograft growth, 100 µl of 1 × 10^5 SNK6 cells in PBS were mixed with 100 µl growth factor-reduced basement membrane matrix (Matrigel™, BD Biosciences) resulting in 200 µl of solution that was injected subcutaneously along the mouse flank at each intended tumor site. Tumor size was measured using a digital caliper and volume was calculated, and mice were randomly divided into four groups (n = 9 per group) when the tumor volume reached 50–100 mm^3 on day ~18 after tumor inoculation and given treatment as follows: Group 1 (control (CTL)) was intratumorally injected with HBSS buffer (5.33 mM KCl, 0.44 mM KH2PO4, 138 mM NaCl, 4 mM NaHCO3, 0.3 mM Na2HPO4, and 5.6 mM glucose, pH 7.3) containing 0.05% DMSO; Group 2 (Tf-D-HKN15) received HBSS buffer containing 0.05% DMSO with 50 µM Tf-D-HKN15 peptides; Group 3 (Tf-D-HKC15) received HBSS buffer containing 0.05% DMSO with 50 µM Tf-D-HKC15 peptides; Group 4 (Tf-D-HKC8) received HBSS buffer containing 0.05% DMSO with 50 µM Tf-D-HKC8 peptides. […] Beginning on the day of inoculation, mouse weight and tumor volume were monitored every 2 days. Mice were monitored for changes in body weight and sacrificed when values fell below 20% of their initial weight; the survival curve was calculated and the final tumor tissues were isolated for biomedical analysis. […]

HKDC1/VDAC1 = HKDC1/VDAC1 (Homo sapiens, UniProt P21796); assay: IP/WB HKDC1 binding with VDAC1 in xenograft tumor tissue; assay type: in vivo, mouse; design: from tissue; host or cells: SNK6 xenograft tumor tissue from Balb/c athymic nude mice; details: SNK6 xenograft, nude mice; intratumoral 50 µM peptide every 2 days from day ~18; tissue day 50; IP/WB vs CTL; n = 5
Sequence of HKDC1/VDAC1 (P21796 2-283 limits assumed): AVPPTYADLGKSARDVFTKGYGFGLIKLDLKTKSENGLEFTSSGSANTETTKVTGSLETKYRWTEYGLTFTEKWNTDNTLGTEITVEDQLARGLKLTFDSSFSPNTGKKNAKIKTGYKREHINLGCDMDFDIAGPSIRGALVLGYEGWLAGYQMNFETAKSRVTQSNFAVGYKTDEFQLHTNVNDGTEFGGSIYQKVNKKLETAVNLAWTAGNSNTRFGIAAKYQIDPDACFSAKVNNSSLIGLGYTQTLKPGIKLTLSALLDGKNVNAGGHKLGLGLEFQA
Method: Immunoprecipitation (IP) and Western Blotting (WB). Cell lysates were pre-cleared by pre-immune IgG plus Protein A agarose beads for 2 hours, and the supernatants were immunoprecipitated by the indicated antibodies and a 50% slurry of Protein A Agarose beads overnight at 4 °C (9). After washing with buffer containing 50 mM Tris, pH 7.5, 150 mM NaCl, 1% NP-40, and 0.5% deoxycholate with protease inhibitors, proteins were released, separated on 10% SDS-PAGE gels, blotted by primary antibodies, and then simultaneously incubated with the differentially labeled species-specific secondary antibodies, anti-RABBIT IRDye™ 800CW (green) and anti-MOUSE (or goat) ALEXA680 (red). Membranes were scanned and quantitated by the ODYSSEY Infrared Imaging System (LI-COR, NE) (10).
as §2

Row | Substance | IC50 (HMECs) | IC50 (Healthy MNCs) | IC50 (SW620) | IC50 (THP1) | peptide delivered into SNK6 cells (delivery efficiency) (SNK6 cells [1]) | 8-OHdG formation (SNK6 cells [2]) | apoptosis rate increase (SNK6 cells [3]) | thymidine incorporation (SNK6 cells [4]) | EBV Zta protein levels in tumor (EBV Zta) | EBV EA-D protein in tumor (EBV EA-D) | P-gp protein in tumor (P-gp) | Zta gene expression on tumor tissues (IHC) (Zta) | HKDC1 binding with VDAC1 in tumor (HKDC1/VDAC1)
1 | HAIYPRH-ITAVAKRLQQAQKEN [Tf-D-HKC15] | > 15 µM | > 15 µM | 12.5 ± 0.8 µM | 2.3 ± 0.5 µM | 35.6% | 157% | 2.91 fold | 71% | 65% | 61% | 48% | 64% | 71%
2 | HAIYPRH-LQQAQKEN [Tf-D-HKC8] | > 15 µM | > 15 µM | 10.2 ± 0.7 µM | 1.8 ± 0.6 µM | 53.4% | 209% | 11.4 fold | 28% | 32% | 38% | 17% | 28% | 38%

Source: paper PMC7515829, “HKDC1 C-terminal based peptides inhibit extranodal natural killer/T-cell lymphoma by modulation of mitochondrial function and EBV suppression” (Leukemia, 2020)
